Legend:
[1] = test system: Sprague Dawley rats; assay: Example 9 benzoylecgonine intranasal toxicity, Single-Dose Phase; assay type: in vivo, rat
Protocol: Benzoylecgonine in the vehicle (deionized water) was administered by intranasal instillation once to a group (Group 2) of Sprague Dawley rats at a dose level of 8.8 mg/kg. […] The dose volume was 0.22 mL/kg, divided between the 2 nares, for both groups. Groups 1 and 2 each consisted of 20 animals/sex. Following dose administration, 9 to 10 animals/sex/group were euthanized on Study Day 1; the remaining 10 animals/sex/group were euthanized following a 14-day nondosing (recovery) period. Criteria for evaluation included daily mortality observations, daily clinical observations, detailed physical observations, body weights, food consumption, clinical pathology (hematology, coagulation, serum chemistry, and urinalysis), organ weights, gross pathology, and microscopic examination of select tissues.
(§1) Organization of Test Groups, Dosage Levels, and Treatment Regimen—The vehicle and test article formulations were administered by intranasal instillation into each naris via a syringe equipped with stainless steel-shafted, stainless steel ball-tipped dosing cannula once (Single-Dose Phase) or once daily for 14 consecutive days (Repeat-Dose Phase), through the day prior to the primary necropsy. The same syringe and dosing cannula was used to administer the dose across both nares for a given animal on a given dosing day. The total dose volume administered per dose was split approximately equally across each naris, such that approximately half of the total dose volume was administered into one naris, and the remaining was administered into the other naris. Treatment administration across each naris for an individual animal occurred at approximately the same time. The dose volume for all groups was 0.22 mL/kg. Individual doses were based on the most recently recorded body weights. Adjusted doses became effective the day of collection of the weekly body weights. The first day of dosing was Study Day 0; the first week of dosing was Study Week 0.
(§2) All animals were observed twice daily, once in the morning and once in the afternoon, for mortality and moribundity. Animals found dead were examined macroscopically as soon as possible to ensure that tissues were not lost due to autolysis.
(§3) Clinical examinations were performed at the time of dose administration and 1 to 2 hours following dose administration. During the recovery period, the animals were observed once daily. The absence or presence of findings was recorded for individual animals at the scheduled intervals. For the Single-Dose Phase, detailed physical examinations were conducted on all animals within 4 days of receipt, on the day of randomization, and on Study Days 0, 1 (for animals scheduled for necropsy), 7, and 14. For the Repeat-Dose Phase, detailed physical examinations were conducted on all animals within 4 days of receipt, on the day of randomization, weekly (t 2 days) during the study period, and on the day of the scheduled necropsies (see Appendix 1—Study Protocol and Deviations). Daily observations during the recovery period were not necessary on days when detailed physical examinations were conducted.
(§4) Individual body weights were recorded within 4 days of receipt, on the day of randomization, Study Day 0 (prior to dosing), weekly (±2 days) during the study period, and on the day prior to the scheduled necropsies (nonfasted). Mean body weights and mean body weight changes were calculated for the corresponding intervals. Final body weights (fasted) were recorded on the day of the scheduled necropsies.
(§5) Cage food weights were recorded once weekly (±2 days) beginning following randomization and throughout the study period. Food consumption was calculated as g/animal/day for the corresponding body weight intervals.
(§6) Blood and urine samples for clinical pathology evaluations (hematology, coagulation, serum chemistry, and urinalysis) were collected from all animals assigned to the scheduled necropsies. […]

[2] = Benzoylecgonine solubility in water; assay type: physicochemical; details: deionized water vehicle
Protocol: Deionized water was chosen as the vehicle for this study to avoid any vehicle-related local toxicity. Benzoylecgonine is soluble in water up to approximately 40 mg/mL.

[3] = test system: Sprague Dawley rats; assay: Example 9 benzoylecgonine intranasal toxicity, Repeat-Dose Phase; assay type: in vivo, rat
Protocol: Benzoylecgonine in the vehicle was administered by intranasal instillation once daily for 14 days to a group (Group 2) of Sprague Dawley rats at a dosage level of 8.8 mg/kg/day. […] The dose volume was 0.22 mL/kg, divided between the 2 nares, for both groups. Groups 1 and 2 each consisted of 15 animals/sex. Following 14 days of dose administration, 10 animals/sex/group were euthanized; the remaining 5 animals/sex/group were euthanized following a 14-day nondosing (recovery) period. Criteria for evaluation included daily mortality observations, daily clinical observations, detailed physical observations, body weights, food consumption, clinical pathology (hematology, coagulation, serum chemistry, and urinalysis), organ weights, gross pathology, and microscopic examination of select tissues.
as §1, §2, §3, §4, §5, §6

[4] = Literature disposition of cocaine (intravenous clearance, urinary elimination); assay type: in vivo, human; details: humans
From the text: In humans, cocaine is eliminated predominantly by metabolism, with little excreted unchanged in the urine. Only 1% to 10% of a dose of cocaine is eliminated unmetabolized in urine.

[5] = topical application with cotton pledgets; cited from earlier work
[6] = 8.8 mg/kg once, intranasal instillation
[7] = 8.8 mg/kg/day for 14 days, intranasal instillation

## CN1[C@H]2CC[C@@H]1[C@@H](C(=O)O)[C@@H](OC(=O)c1ccccc1)C2 [BE, benzoylecgonine]
[1]; [6]
  body weights: unaffected
  clinical observations: no test article-related clinical observations
  food consumption: unaffected
  hematology and coagulation parameters: unaffected
  macroscopic examination at necropsy: No test article-related macroscopic findings
  organ weights: No test article-related organ weight findings
  serum chemistry parameters: unaffected
  survival: no test article-related effects on survival
  urinalysis parameters: unaffected
[1]; 8.8 mg/kg once, intranasal instillation, also after 14-day recovery
  microscopic examination (nasal cavity with turbinates): No test article-related microscopic findings
[1]; Single-Dose Phase, 40 mg/mL in deionized water, pH meter
  pH of the dosing formulation: 6.32
[2]
  solubility in water: approximately 40 mg/mL
[3]; 8.8 mg/kg once or once daily for 14 days, intranasal instillation
  tolerability: well tolerated
[3]; [7]
  clinical observations: no test article-related clinical observations
  food consumption: unaffected
  hematology and coagulation parameters: unaffected
  macroscopic examination at necropsy: No test article-related macroscopic findings
  organ weights: No test article-related organ weight findings
  serum chemistry parameters: unaffected
  survival: All animals survived
  urinalysis parameters: unaffected
[3]; 8.8 mg/kg/day for 14 days, intranasal instillation, also after 14-day recovery
  microscopic examination (nasal cavity with turbinates): No test article-related microscopic findings
[3]; 8.8 mg/kg/day for 14 days, intranasal instillation, dosing period
  body weights: unaffected
[3]; Repeat-Dose Phase, 40 mg/mL in deionized water, pH meter
  pH of the dosing formulation: 6.32
[3]; intranasal instillation once or once daily for 14 days
  no-observed-effect level (NOEL): 8.8 mg/kg/day

## COC(=O)[C@H]1[C@@H](OC(=O)c2ccccc2)C[C@@H]2CC[C@H]1N2C [Cocaine, cocaine, reference compound]
[4]
  CLr as percent of CL: less than 2%
  CLr as percent of human glomerular filtration rate (125 mL/min): less than 40%
[5]
  fraction absorbed from a cottonoid pledget: approximately 37%

Source: patent US10413505B1, “Pharmaceutical compositions and methods of using the same” (priority 2017, dated 2019)
